One assay addresses T1, human 5-HT2A receptor (Homo sapiens, UniProt P28223).
T1 construct: expressed in transfected cells
Description: Test A: binding to human recombinant 5-HT2A serotonin receptor, [3H]-ketanserin displacement. Particulars: membranes from CHO-K1 cells expressing human 5-HT2A; 0.5 nM [3H]-ketanserin; 1 hour at 25° C.; read-out: 5-HT2A (pKi) (converted). The procedure: In particular, binding to the human 5-HT2A serotonin receptor was performed using, as starting material, a preparation of membranes from stable recombinant CHO-K1 cell line expressing the human 5-HT2A receptor.
The non-specific binding was measured in the presence of 1 μM mianserin. The assay was conducted in Tris-HCl 50 mM buffer (pH 7.4 at 37° C.), with incubation for 1 hour at 25° C. The test compounds were dissolved in DMSO, then diluted in buffer (final DMSO concentration 0.01%) and plated on 96-well plates. The compounds were tested in duplicate in an 8-points concentration response curve (in a Log scale ranging from 10^−12 to 10^−5 M).
After incubation, the membranes were filtered on glass-fibre filters (GF/B) (Unifilter, Packard) treated with 0.5% polyethyleneimine. Then the filters were washed with buffer solution and oven-dried for 30 minutes at 45° C. The scintillation liquid was added to each well, and at least 16 hours later the radioactivity was measured for 1 minute using a TopCount (Packard).
The IC50 values for each compound were calculated using non-linear regression analysis (GraphPad PRISM software) and the inhibition constants Ki were determined using the equation described by Cheng Y. and Prussof W. H. (1973) “Relationship between the inhibition constant (Ki) and the concentration of inhibitor which causes 50 percent inhibition (I50) of an enzyme reaction.” Biochem. Pharmacol. 22: 3099-3108.

The next assay has as its target T2, human 5-HT2C receptor (Homo sapiens, UniProt P28335).
T2 construct: expressed in transfected cells
T2 sequence (P28335 33-458): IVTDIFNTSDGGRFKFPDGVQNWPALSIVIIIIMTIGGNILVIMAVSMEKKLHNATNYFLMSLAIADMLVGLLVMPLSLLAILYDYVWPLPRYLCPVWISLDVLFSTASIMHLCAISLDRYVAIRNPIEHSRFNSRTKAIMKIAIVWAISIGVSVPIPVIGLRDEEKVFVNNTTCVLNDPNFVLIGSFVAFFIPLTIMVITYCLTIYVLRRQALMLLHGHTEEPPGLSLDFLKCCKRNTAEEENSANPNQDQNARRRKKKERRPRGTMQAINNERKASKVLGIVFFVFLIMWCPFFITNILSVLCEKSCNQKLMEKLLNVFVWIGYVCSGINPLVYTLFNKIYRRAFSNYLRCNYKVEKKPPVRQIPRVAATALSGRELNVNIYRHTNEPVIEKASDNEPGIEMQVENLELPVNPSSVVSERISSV
Nature of the assay: Test B: binding to human 5-HT2C serotonin receptor, [3H]-mesulergine displacement. Particulars: membranes from CHO-K1 cells expressing human 5-HT2C; 1 nM [3H]-mesulergine; 1 hour at 25° C.; read-out: (h)5-HT2c (pKi) (converted). On the procedure:
69: 1449-1458. In particular, binding to the human serotonin 5-HT2C receptor was performed using, as starting material, a preparation of membranes from stable recombinant CHO-K1 cell line expressing the human 5-HT2C receptor. […] The non-specific binding was measured in the presence of 1 μM mianserin. The assay was conducted in Tris-HCl 50 mM buffer (pH 7.4 at 37° C.), 0.1% Ascorbic Acid, 10 μM Pargyline, with incubation for 1 hour at 25° C. The test compounds were dissolved in DMSO, then diluted in buffer (final DMSO concentration 0.01%) and plated on 96-well plates The compounds were tested in duplicate in an 8-points concentration response curve (in a Log scale ranging from 10^−12 to 10^−5 M). SB 242084 was used as reference compound. […] Then the filters were washed with buffer solution and oven-dried for 30 minutes at 45° C. The scintillation liquid was added to each well, and at least 16 hours later the radioactivity was measured for 1 minute using a TopCount (Packard). The IC50 values for each compound were calculated using non-linear regression analysis (GraphPad PRISM software) and the inhibition constants Ki were determined using the equation described by Cheng Y. and Prussof W. H. […] Pharmacol. 22: 3099-3108.

For a further assay, the system named is serotoninergic system. Description: Test C: 5-HTP-induced head twitch test in mice. Format: in vivo, mouse. Particulars: male CD-1 mice; 5 mg/kg intraperitoneally; 5-HTP 300 mg/kg i.p. 30 min later; counted 24 to 26 minutes after 5-HTP. On the procedure: The interactions of the compounds of formula (I) according to the present invention with the serotoninergic system was tested following the “head twitch” model in the mouse, according to the standard methodology described by Sztanke K., Fidecka S., Kedzierska E., Karczmarzyk Z., Pihlaja K., Matosiuk D. (2005) in “Antionociceptive activity of new imidazole carbonyl derivatives. Part 4. Synthesis and pharmacological activity of 8-aryl-3,4-dioxo-2H,8H-6,7-dihydrimidazo[2,1c][1,2,4]triazine.” Eur. J. Med. Chem. 40: 127-134, and in Corne S. J., Pickering R. W., Warner B. T. (1963) “A method for assessing the effects of drugs on the central actions of 5-hydroxytryptamine.” Br. J. Pharmacol. Chemother. 20: 106-120.
The “head twitches” are a characteristic shaking of the head induced in the animals by the increase in central levels of serotonin.
Male CD-1 mice weighing 25-30 g were used for the “head twitch” test. Molecules were suspended in a 0.5% methylcellulose aqueous solution (MTC) and the animals were treated intraperitoneally with the test compounds at the dose of 5 mg/kg (10 ml/kg body weight). The control animals received the vehicle alone (MTC) by the same route. Head twitches, considered as a specific behavioural model for the activation of serotoninergic neurons, were induced by an intraperitoneal administration of 5-hydroxytryptophan (5-HTP), a precursor of serotonin (5-HT), dissolved in a 0.5% MTC solution and given at 300 mg/kg 30 min following drug administration.
The number of head twitches, which constitutes the parameter for assessment of the serotoninergic response, was measured in the interval from 24 to 26 minutes after administration of 5-HTP.

Structures are written as SMILES. Structures can show the parent of a compound that is named as a salt. Where only a bound is given, the exact number is not on record here.

T1 sequence (P28223 whole entry): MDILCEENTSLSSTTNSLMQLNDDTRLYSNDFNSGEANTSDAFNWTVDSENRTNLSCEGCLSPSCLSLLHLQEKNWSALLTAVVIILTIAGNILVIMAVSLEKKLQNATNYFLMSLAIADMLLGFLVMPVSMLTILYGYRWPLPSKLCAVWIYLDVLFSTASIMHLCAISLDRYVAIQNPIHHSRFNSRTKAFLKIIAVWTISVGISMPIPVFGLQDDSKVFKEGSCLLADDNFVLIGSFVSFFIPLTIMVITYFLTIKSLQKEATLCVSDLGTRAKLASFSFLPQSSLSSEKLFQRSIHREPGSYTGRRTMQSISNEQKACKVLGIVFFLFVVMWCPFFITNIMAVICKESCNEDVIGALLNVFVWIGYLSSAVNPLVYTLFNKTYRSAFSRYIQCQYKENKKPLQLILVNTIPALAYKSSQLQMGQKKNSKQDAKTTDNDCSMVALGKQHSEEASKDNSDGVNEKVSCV

On to `Cl.O=C1c2c3ccccc3nn2CCN1CC1CCN(CCc2ccc(F)cc2)CC1` [Compound 1, 2-({1-[2-(4-fluorophenyl)ethyl]piperidin-4-yl}methyl)-3,4-dihydropyrazino[1,2-b]indazol-1(2H)-one hydrochloride], for which the Ki was 19.5 nM on human 5-HT2A receptor and 1700 nM at human 5-HT2C receptor. Moreover, in the assay with serotoninergic system, the “% INHIBITION (number of head twitches vs vehicle treated group)” value (“% INHIBITION” below) is given as 50%.
Take `O=C1c2c3ccccc3nn2CCCN1CC1CCCN(CCc2ccc(F)cc2)C1` (stereo not shown) [Compound 10, 2-({1-[2-(4-fluorophenyl)ethyl]piperidin-3-yl}methyl)-2,3,4,5-tetrahydro-1H-[1,4]diazepino[1,2-b]indazol-1-one dihydrochloride]: the Ki on human 5-HT2A receptor was 275 nM.
For the compound `O=C1c2c3c(nn2CCN1CC1CCN(CCc2ccc(F)cc2)CC1)CCCC3` [Compound 17, 2-({1-[2-(4-fluorophenyl)ethyl]piperidin-4-yl}methyl)-3,4,7,8,9,10-esahydropyrazino[1,2-b]indazol-1(2H)-one hydrochloride], the Ki at human 5-HT2A receptor was 29.5 nM; on human 5-HT2C receptor, 7410 nM. In the assay on serotoninergic system, the “% INHIBITION” value came to 32%.
`O=C1c2c3ccccc3nn2CCN1CC1CCN(CCc2ccccc2F)CC1` [Compound 8, 2-({1-[2-(2-fluorophenyl)ethyl]piperidin-4-yl}methyl)-3,4-dihydropyrazino[1,2-b]indazol-1(2H)-one]: on human 5-HT2A receptor, the Ki was 1.82 nM. The “% INHIBITION” value with serotoninergic system is on record as 70%.
In the case of `O=C1c2c3ccccc3nn2CCCN1CCCN1CCC(c2ccccc2)CC1` [Compound 31, 2-[3-(4-phenylpiperidin-1-yl)propyl]-2,3,4,5-tetrahydro-1H-[1,4]diazepino[1,2-b]indazol-1-one hydrochloride], the Ki at human 5-HT2A receptor was 45.7 nM; at human 5-HT2C receptor, above 10000 nM.
With `O=C1c2c3ccccc3nn2CCN1CC1CCN(CCc2ccccc2)CC1` [Compound 20, 2-[(1-phenethylpiperidin-4-yl)methyl]-3,4-dihydropyrazino[1,2-b]indazol-1(2H)-one hydrochloride], the Ki at human 5-HT2A receptor was 16.6 nM.
With `O=C1c2c3ccccc3nn2CCCN1CC1CCN(CCc2ccccc2)CC1` [Compound 22, 2-[(1-phenethylpiperidin-4-yl)methyl]-2,3,4,5-tetrahydro-1H-[1,4]diazepino[1,2-b]indazol-1-one], the Ki on human 5-HT2A receptor is 20.9 nM.
Regarding `O=C1c2c3ccccc3nn2CCN1CC1CCCN(CCc2ccccc2F)C1` (stereo not shown) [Compound 5, 2-({1-[2-(2-fluorophenyl)ethyl]piperidin-3-yl}methyl)-3,4-dihydropyrazino[1,2-b]indazol-1(2H)-one hydrochloride], the Ki at human 5-HT2A receptor was 692 nM.
Regarding `Cl.O=C1c2c3ccccc3nn2CCCN1CC1CCN(CCc2ccc(F)cc2)CC1` [Compound 16, 2-({1-[2-(4-fluorophenyl)ethyl]piperidin-4-yl}methyl)-2,3,4,5-tetrahydro-1H-[1,4]diazepino[1,2-b]indazol-1-one hydrochloride], the Ki at human 5-HT2A receptor is 7.24 nM; at human 5-HT2C receptor, above 10000 nM. Further, in the assay on serotoninergic system, the “% INHIBITION” value turned out to be 56%.
As to `O=C1c2c3ccccc3nn2CCCN1CC1CCCN(CCc2ccccc2F)C1` (stereo not shown) [Compound 13, 2-({1-[2-(2-fluorophenyl)ethyl]piperidin-3-yl}methyl)-2,3,4,5-tetrahydro-1H-[1,4]diazepino[1,2-b]indazol-1-one dihydrochloride], on human 5-HT2A receptor, the Ki is 257 nM.
With `O=C1c2c3ccccc3nn2CCN1CCCN1CCC(c2ccccc2)CC1` [Compound 28, 2-[3-(4-phenylpiperidin-1-yl)propyl]-3,4-dihydropyrazino[1,2-b]indazol-1(2H)-one hydrochloride], the Ki at human 5-HT2A receptor is 74.1 nM; at human 5-HT2C receptor, above 10000 nM.
For the compound `Cc1cc2c(cc1Cl)N(C(=O)Nc1ccc(Oc3cccnc3C)nc1)CC2` [SB 242084, reference compound], at human 5-HT2C receptor, the Ki was 0.468 nM.
For the compound `O=C1c2c3ccccc3nn2CCN1CC1CCCN(CCc2ccc(F)cc2)C1` (stereo not shown) [Compound 2, 2-({1-[2-(4-fluorophenyl)ethyl]piperidin-3-yl}methyl)-3,4-dihydropyrazino[1,2-b]indazol-1(2H)-one], at human 5-HT2A receptor, the Ki is 1150 nM.

Values taken from patent US9655906B2, “Tricyclic indazole compound, method of preparation and pharmaceutical composition containing it” (AZIENDE CHIMICHE RIUNITE ANGELINI FRANCESCO A.C.R.A.F S.p.A., priority 2010, dated 2017).
